The values that follow come from paper PMC7296828 (Biochemistry, 2020).

For this experiment, the target named is T1, Ribonuclease 6 (RNase 6, RNase K6) (Homo sapiens, UniProt Q93091).
T1 sequence (Q93091 24-150): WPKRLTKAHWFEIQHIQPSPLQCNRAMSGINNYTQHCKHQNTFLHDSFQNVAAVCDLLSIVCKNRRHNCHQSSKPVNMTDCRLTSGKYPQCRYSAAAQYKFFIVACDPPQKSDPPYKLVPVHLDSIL
Kind of experiment: X-ray crystal structure. In kind it is binding.

SMILES strings stand for the structures.

Usually Kd stands for the constant that tells how readily two partners part at equilibrium. Read a low Kd as tighter binding. `Nc1ncnc2c1ncn2[C@@H]1O[C@H](COP(=O)(O)O)[C@@H](O)[C@H]1O` [5’-AMP] yielded a Kd of 154 ± 5 µM.
